Results taken from patent US9676820B2, “Method for inhibiting proliferation of high LIX1L-expressing tumor cell, and tumor cell proliferation-inhibiting peptide” (National University Corporation Hamamatsu University School …, priority 2013, dated 2017).

Tested on: 293 FLG/LIX1L
Assay: Number of colonies formed, 293 FLG/LIX1L (Example 6)
Assay type: cell-based
Settings: peptide 25 μM, cultured for 14 days
Procedure: Specifically, 293 FLG was plated in one plate (6 wells/plate) and 293 FLG/LIX1L was plated in two plates such that the density of the cells became 1×10^4 cells/3.5 cm well. Among these, one of the plates in which 293 FLG was plated and the plate in which 293 FLG/LIX1L was plated were cultured for 14 days in a 10% vol. % FCS-containing DMEM culture medium. The remaining one of the plates in which 293 FLG/LIX1L was plated was cultured for 14 days in a 10% vol. % FCS-containing DMEM culture medium in which the peptide 1 was made to be included such that the concentration thereof became 25 μM. Each of the wells after the culturing was observed under a microscope, and the number of colonies formed was measured.

With `CC(C)[C@H](NC(=O)[C@H](Cc1ccc(O)cc1)NC(=O)[C@H](CS)NC(=O)[C@@H](NC(=O)[C@H](Cc1ccc(O)cc1)NC(=O)[C@@H]1CCCN1C(=O)[C@@H]1CCCN1C(=O)[C@H](CO)NC(=O)[C@H](CC(N)=O)NC(=O)[C@H](CO)NC(=O)[C@@H]1CCCN1C(=O)CCCCCNC(=O)[C@H](CCCNC(=N)N)NC(=O)[C@H](CCCNC(=N)N)NC(=O)[C@H](CCCNC(=N)N)NC(=O)[C@H](CCC(N)=O)NC(=O)[C@H](CCCNC(=N)N)NC(=O)[C@H](CCCNC(=N)N)NC(=O)[C@H](CCCCN)NC(=O)[C@H](CCCCN)NC(=O)[C@H](CCCNC(=N)N)NC(=O)CNC(=O)[C@@H](N)Cc1ccc(O)cc1)C(C)C)C(N)=O` [peptide 1, YGRKKRRQRRR-X-PSNSPPYVCYV-NH2] the “number of colonies formed” value was “inhibited”.
